Reference: patent US11629171B2, “Beta-hairpin peptidomimetics” (POLYPHOR AG, priority 2017, dated 2023)
In brackets after ≈: the same amount, converted by molar mass. Where a SMILES comes first, the peptide text is derived from it. Bridges are numbered along the chain shown (N, C = ends). Roman numbers before positions name the chains, in order. [ ]: non-standard residue; d: D form. Thr(ol) = C[C@@H](O)[C@H](N)CO; Tle = CC(C)(C)[C@H](N)C(=O)O; Hiv = CC(C)[C@H](O)C(=O)O; dDab = NCC[C@@H](N)C(=O)O; Dab = NCC[C@H](N)C(=O)O

Columns and labels:
Format in all cases: cell-based
[1] = test system: human red blood cells (hRBC); test: Hemolysis; conditions: red cells of human, 1 h, 200
Summary of the method: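 hRBC washed 4× in PBS; 200 μg/mL peptide + 20% (v/v) hRBC, 1 h, 37° C, 300 rpm. Spin, supernatant ~7.5-fold diluted, OD540 blank corrected. % hemolysis = OD540 peptide / OD540 Triton X-100 × 100.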

[2] = test system: Escherichia coli ATCC 25922; conditions: ATCC 25922
Summary of the method: (§1)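 MIC in μg/mL, read as no visible growth after 18-20 hours at 35° C. Peptides were serially diluted two-fold in MH-II broth plus P-80 (0.002% final, v/v) and inoculated at about 10^6 CFU/mL following the CLSI broth microdilution standard.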

[3] = test system: Acinetobacter baumannii 872842; conditions: 872842
Summary of the method: as §1

[4] = test system: Acinetobacter baumannii DSM 30008; conditions: DSM 30008
Summary of the method: as §1

[5] = test system: Pseudomonas aeruginosa ATCC 27853; conditions: ATCC 27853
Summary of the method: as §1

Escherichia coli 926415 = conditions: 926415
Summary of the method: as §1

[6] = test system: Klebsiella pneumoniae 968733; conditions: 968733
Summary of the method: as §1

[7] = test system: Klebsiella pneumoniae SSI #3010; conditions: SSI #3010
Summary of the method: as §1

[8] = test system: Enterobacter cloacae 848840; conditions: 848840
Summary of the method: as §1

SMILES | Hemolysis at 200 μg/mL [1] [%] | MIC [2] [µg/mL] | MIC [3] [µg/mL] | MIC [4] [µg/mL] | MIC [5] [µg/mL] | MIC (Escherichia coli 926415) [µg/mL] | MIC [6] [µg/mL] | MIC [7] [µg/mL] | MIC [8] [µg/mL]
CC(C)C[C@@H]1NC(=O)[C@@H](CC(C)C)NC(=O)[C@H](CCN)NC(=O)[C@@H](NC(=O)[C@H](CCN)NC(=O)[C@@H](NC(=O)[C@H](CCN)NC(=O)CC[C@@H]2NC(=O)[C@@H](NC(=O)[C@H](Cc3ccc(O)cc3)NC(=O)[C@@H](NC(=O)[C@@H](N)C(C)C)[C@@H](C)O)CSSC[C@@H](C(=O)N[C@H](C(=O)N[C@@H](C)C(=O)N[C@@H](CO)C(=O)O)C(C)(C)C)NC(=O)[C@H](Cc3c[nH]c4ccccc34)NC(=O)[C@H]([C@@H](C)O)NC(=O)[C@@H](CCN)NC2=O)[C@@H](C)O)CCNC(=O)[C@H]([C@@H](C)O)NC(=O)[C@H](CCN)NC(=O)[C@H](CCN)NC1=O [Ex. 186] (I: H-VTYCE[dDab]TWC[Tle]AS-OH / II: [Dab]T[Dab][Dab][Dab][dL]L[Dab][Dab]T; disulfide I:4-I:9; amide I:5-II:N; lactam II:4-II:C) | <1 | 0.125 (≈ 0.0524 µM) | 0.25 (≈ 0.105 µM) | 0.0625 (≈ 0.0262 µM) | 0.125 (≈ 0.0524 µM) | 1 (≈ 0.419 µM) | 8 (≈ 3.35 µM) | 0.125 (≈ 0.0524 µM) | 0.25 (≈ 0.105 µM)
CC(C)C[C@@H]1NC(=O)[C@@H](CC(C)C)NC(=O)[C@H](CCN)NC(=O)[C@@H](NC(=O)[C@H](CCN)NC(=O)[C@@H](NC(=O)[C@H](CCN)NC(=O)CC[C@@H]2NC(=O)[C@@H](NC(=O)[C@H](Cc3ccc(O)cc3)NC(=O)[C@H](CCC(=O)O)NC(=O)[C@@H](O)C(C)C)CSSC[C@@H](C(=O)N[C@H](C(=O)N[C@@H](CCCCN)C(=O)N[C@H](CO)[C@@H](C)O)C(C)(C)C)NC(=O)[C@H](Cc3c[nH]c4ccccc34)NC(=O)[C@H]([C@@H](C)O)NC(=O)[C@@H](CCN)NC2=O)[C@@H](C)O)CCNC(=O)[C@H]([C@@H](C)O)NC(=O)[C@H](CCN)NC(=O)[C@H](CCN)NC1=O [Ex. 189] (I: H-[Hiv]EYCE[dDab]TWC[Tle]K[Thr(ol)] / II: [Dab]T[Dab][Dab][Dab][dL]L[Dab][Dab]T; disulfide I:4-I:9; amide I:5-II:N; lactam II:4-II:C) | <1 | 0.125 (≈ 0.0506 µM) | 0.5 (≈ 0.202 µM) | 0.125 (≈ 0.0506 µM) | 0.25 (≈ 0.101 µM) | 1 (≈ 0.405 µM) | 4 (≈ 1.62 µM) | 0.125 (≈ 0.0506 µM) | 0.25 (≈ 0.101 µM)
CC(C)C[C@@H]1NC(=O)[C@@H](CC(C)C)NC(=O)[C@H](CCN)NC(=O)[C@@H](NC(=O)[C@H](CCN)NC(=O)[C@@H](NC(=O)[C@H](CCN)NC(=O)CC[C@@H]2NC(=O)[C@@H](NC(=O)[C@H](Cc3ccc(O)cc3)NC(=O)[C@H](CCC(=O)O)NC(=O)[C@@H](O)C(C)C)CSSC[C@@H](C(=O)N[C@H](C(=O)N[C@@H](CCN)C(=O)N[C@H](CO)[C@@H](C)O)C(C)(C)C)NC(=O)[C@H](Cc3c[nH]c4ccccc34)NC(=O)[C@H]([C@@H](C)O)NC(=O)[C@@H](CCN)NC2=O)[C@@H](C)O)CCNC(=O)[C@H]([C@@H](C)O)NC(=O)[C@H](CCN)NC(=O)[C@H](CCN)NC1=O [Ex. 190] (I: H-[Hiv]EYCE[dDab]TWC[Tle][Dab][Thr(ol)] / II: [Dab]T[Dab][Dab][Dab][dL]L[Dab][Dab]T; disulfide I:4-I:9; amide I:5-II:N; lactam II:4-II:C) | <1 | 0.0625 (≈ 0.0256 µM) | 0.5 (≈ 0.205 µM) | 0.0625 (≈ 0.0256 µM) | 0.25 (≈ 0.102 µM) | 1 (≈ 0.409 µM) | 4 (≈ 1.64 µM) | 0.125 (≈ 0.0512 µM) | 0.5 (≈ 0.205 µM)
